# Data: PubChem BioAssay (NCI)
#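 Assay format: 96-well plates, 48-hour exposure. At the GI50, growth is halved. At the TGI there is no net growth.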
# What was measured:
# Assay in all cases: NCI anticancer screen, dose series, 48 h
# [1] = tested on: SN12C renal
# [2] = tested on: A549 NSCLC
# [3] = tested on: SNB-19 CNS
# [4] = tested on: HOP-92 NSCLC
# [5] = tested on: NCI-H23 lung
# [6] = tested on: U251 CNS
# [7] = tested on: EKVX NSCLC
# [8] = tested on: SF-268 CNS
# [9] = tested on: BT-549 breast
# [10] = tested on: DU-145 prostate
Structure (SMILES),TGI [1] [µM],TGI [2] [µM],TGI [3] [µM],TGI [4] [µM],TGI [5] [µM],TGI [6] [µM],TGI [7] [µM],TGI [8] [µM],GI50 [1] [µM],GI50 [2] [µM],GI50 [3] [µM],GI50 [4] [µM],GI50 [9] [µM],TGI [9] [µM],GI50 [5] [µM],GI50 [6] [µM],GI50 [10] [µM],TGI [10] [µM],GI50 [8] [µM],GI50 [7] [µM]
C=C1C(=O)O[C@H]2[C@H]1[C@H](OC(=O)/C(C)=C\C)CC(=C)[C@@H]1[C@H](O)[C@H]3O[C@@]3(C)[C@@]12O,> 100,> 100,> 100,> 100,> 100,> 100,> 100,> 100,,,,,,,,,,,,
CCN(Cc1ccc(F)c(F)c1)c1ccc(CO)c(Cl)c1,23.9,19.1,27.8,12.2,27.1,15.1,,32.4,11,1.89,12.6,0.835,11.3,25,6.7,0.867,14.8,38.2,15,
C=CCC1([C@H](C)[C@@H](OC(C)=O)c2cc(OC)c(OC)c(OC)c2)C[C@@H](OC)CCC1=O (some centres undefined),37,77.5,,> 100,22.8,26.7,76.2,50.7,,,,,,,,,,,,
CC(=O)NNc1nc(C)c(C(=O)NNC(=O)C(=O)Nc2ccccc2C#N)s1,> 100,> 100,> 100,> 100,> 100,> 100,> 100,> 100,,,,,,,,,,,,
COc1ccccc1NC(=O)CC(=O)N1N=C(C)C(N=Nc2ccc(S(N)(=O)=O)cc2)C1=O (centres undefined),> 100,> 100,> 100,> 100,> 100,> 100,> 100,> 100,,,,,,,,,,,,
N#C/C(=C1\OC(=O)C(c2ccc(Br)cc2)=C1O)c1ccc(Br)cc1,23.6,44.2,27.5,30,26.2,26.1,31.6,29.5,,,,,,,,,,,,
COc1ccc(C(=O)/C=C/c2ccc(/C=C/c3cc(OC)c(OC)c(OC)c3)cc2)cc1,> 100,80.9,> 100,,65.9,54.7,,88.3,9.61,4.67,21.1,,3.36,16.8,5.39,5.09,10.2,> 100,6.08,
CCCCCn1c(=N)n(CC(O)COc2cccc(C)c2)c2ccccc21 (centres undefined),19,22.9,26.4,14.8,22.5,4.25,,23.9,5.41,10.2,12.3,2.74,9.22,23.3,6.87,2.11,11.4,24,10.7,
COc1ccc(-c2cc(=O)c3cc4c(cc3[nH]2)OCO4)c(OC)c1OC,> 100,> 100,> 100,> 100,> 100,> 100,> 100,> 100,,,,,,,,,,,,
Cc1c(C(=O)/C=C/c2csc3ccccc23)[n+](=O)c2ccccc2n1[O-],4.72,5.25,4.77,,3.49,3.17,3.64,2.78,2,2.13,2.08,,1.61,3.88,1.61,1.64,1.46,2.78,1.44,1.32
CC(=O)NC(CCCNCc1ccccc1)C(=O)NCc1ccccc1 (centres undefined),> 100,> 100,> 100,> 100,> 100,> 100,> 100,> 100,,,,,,,,,,,,
CN1CCN(CCc2cccc(C(=O)c3cnn(-c4ccc(F)cc4)c3N)c2)CC1,> 25,> 25,> 25,> 25,> 25,> 25,,> 25,> 25,> 25,> 25,> 25,> 25,> 25,> 25,> 25,> 25,> 25,> 25,
N#CC(C(=O)/C(=N/NC(=O)c1ccccc1O)C(C#N)c1ccc(Cl)cc1)c1ccc(Cl)cc1 (centres undefined),26.4,72.8,30.2,,23.7,22.5,36.9,32.2,,,,,,,,,,,,
COC(=O)[C@H](Cc1cn(C)cn1)NC(=O)[C@H](Cc1c[nH]c2ccccc12)NC(=O)Nc1cc(C(F)(F)F)cc(C(F)(F)F)c1,> 10,> 10,> 10,> 10,> 10,> 10,,> 10,> 10,> 10,> 10,> 10,> 10,> 10,> 10,> 10,> 10,> 10,> 10,
CN(C(=O)C12C3C4C5C3C1(C(=O)O)C5C42)C(C)(C)C (centres undefined),> 100,> 100,> 100,> 100,> 100,> 100,> 100,> 100,,,,,,,,,,,,
COc1cc2c(cc1OC)C(N(C)C)C(c1ccccc1)=C2Cl (centres undefined),43.3,,> 100,36.7,32.4,30.3,,,,,,,,,,,,,,
CC1SC(c2c(Cl)cccc2Cl)N(NC(=O)c2[nH]c3ccc(F)cc3c2-c2ccccc2)C1=O (centres undefined),5.86,3.16,5.82,,10.1,3.51,10.8,4.89,2.26,1.68,2.17,,5.04,28.5,2.73,1.78,1.92,4.36,1.97,2.33
COc1cccc(NC(=O)CC(=O)N2N=C(N(CCC#N)c3ccc(Cl)cc3)CC2c2ccccc2)c1 (centres undefined),> 100,> 100,> 100,> 100,> 100,> 100,> 100,> 100,,,,,,,,,,,,
CC1=NOC(=O)/C1=C/c1ccccc1O,> 100,> 100,> 100,> 100,> 100,> 100,> 100,> 100,,,,,,,,,,,,
c1cc(-c2cn3ccsc3n2)ccn1,> 100,> 100,> 100,> 100,> 100,> 100,98.7,> 100,,,,,,,,,,,,
COc1ccc(-c2ccc(/C=N/n3c(COc4ccc(Cl)cc4Cl)n[nH]c3=S)o2)c([N+](=O)[O-])c1,58.4,> 100,> 100,,33.2,> 100,> 100,67.1,24.2,19.5,28.4,,21.9,50.2,16.1,22,38.3,> 100,23.1,48.9

Structure (SMILES),TGI [1] [µM],TGI [2] [µM],TGI [3] [µM],TGI [4] [µM],TGI [5] [µM],TGI [6] [µM],TGI [7] [µM],TGI [8] [µM],GI50 [1] [µM],GI50 [2] [µM],GI50 [3] [µM],GI50 [4] [µM],GI50 [9] [µM],TGI [9] [µM],GI50 [5] [µM],GI50 [6] [µM],GI50 [10] [µM],TGI [10] [µM],GI50 [8] [µM],GI50 [7] [µM]
O=C([O-])c1ccccc1Nc1ccccn1.O=C([O-])c1ccccc1Nc1ccccn1.[Ni+2],> 100,> 100,> 100,92.8,> 100,> 100,> 100,> 100,> 100,> 100,> 100,37.1,,,> 100,> 100,,,75.7,31.8
Cc1cccc(NC(=O)CC(=O)N2N=C(N(CCC#N)c3ccc(Cl)cc3)CC2c2ccccc2)c1 (centres undefined),> 100,> 100,> 100,> 100,> 100,> 100,,> 100,,,,,,,,,,,,
CCCc1[nH]nc(CCC(=O)N(Cc2ccccc2)Cc2ccccc2)c1CC,> 100,> 100,> 100,,> 100,,> 100,> 100,,,,,,,,,,,,
CNS(=O)(=O)NN(C)S(=O)(=O)c1ccc(F)cc1,> 100,> 100,> 100,> 100,> 100,> 100,> 100,> 100,,,,,,,,,,,,
CC1=NCCc2c1[nH]c1cc(O)ccc21,> 100,> 100,> 100,> 100,> 100,,> 100,> 100,,,,,,,,,,,,
COc1ccccc1NC(=O)C1=C(C)NC(C)=C(C(=O)Nc2ccccc2OC)C1c1ccccc1F,> 100,> 100,> 100,> 100,> 100,> 100,> 100,> 100,,,,,,,,,,,,
COC(=O)CCC1CCc2c(OC)ccc(O)c2C1=O (centres undefined),> 100,> 100,> 100,,> 100,> 100,> 100,> 100,,,,,,,,,,,,
COc1nc(NC2OCC(OC(C)=O)C(OC(C)=O)C2OC(C)=O)c(N=CC=Nc2c(NC3OCC(OC(C)=O)C(OC(C)=O)C3OC(C)=O)nc(OC)n(C)c2=O)c(=O)n1C (centres undefined),> 100,> 100,> 100,> 100,> 100,> 100,> 100,> 100,,,,,,,,,,,,
COCCN1C2=CCCCC2=Nc2c1nc(N)[nH]c2=O,> 100,> 100,> 100,> 100,> 100,> 100,> 100,> 100,,,,,,,,,,,,
C[N+](C)(C)CC(=O)N/N=C(/Cc1nc2c3c(ccc2[nH]c1=O)C(=O)c1ccccc1C3=O)C(=O)Nc1ccc(Cl)c(Cl)c1,> 100,> 100,,99.8,> 100,,> 100,> 100,,,,,,,,,,,,
CC/C=C\C=C/C(=O)N/C=C/CC1Cc2cccc(O)c2C(=O)O1 (centres undefined),38.1,> 100,> 100,,> 100,> 100,> 100,53.3,17.8,34.9,32.9,,25.8,87.3,58.1,23.3,17.3,52,15.1,38.8
Cc1ccc(C(=O)O/N=C2/CCC/C2=C\c2ccccc2)cc1,> 100,> 100,,> 100,> 100,> 100,> 100,> 100,,,,,,,,,,,,
COC(=O)c1csnn1,> 100,> 100,> 100,,> 100,> 100,> 100,> 100,,,,,,,,,,,,
CC(C)C(=O)Nc1nc2nc[nH]c2c(=O)[nH]1,> 100,> 100,> 100,> 100,> 100,> 100,> 100,> 100,,,,,,,,,,,,
COC(=O)CCC(NC(=S)N/N=C(\C)c1nccs1)C(=O)OC (centres undefined),> 100,> 100,> 100,> 100,> 100,> 100,> 100,> 100,,,,,,,,,,,,
CN(C)/C=C/c1nnc([N+](=O)[O-])s1,47.7,66.4,79.3,,36.8,51.8,,42.1,,,,,,34.7,,,,30.8,,
O=Cc1cn(C(=O)c2ccccc2)c2ccccc12,,> 100,,,> 100,> 100,> 100,,,,,,,,,,,,,
CCCCCCCCCc1cc(=O)c2ccc(OCc3ccccc3)cc2o1,> 100,> 100,> 100,> 100,> 100,> 100,> 100,> 100,,,,,,,,,,,,
O=C(O)c1ccc([Se][Se]c2ccc(C(=O)O)cc2)cc1,> 100,> 100,> 100,,37.6,49.6,64.3,> 100,,,,,,,,,,,,
O=c1c2c([nH]c3cc4c(cc13)OCO4)-c1ccccc1CC2,> 100,> 100,> 100,,> 100,> 100,> 100,> 100,,,,,,,,,,,,
